Laboratory results taken from patent publication US12297203B2, “Pyrrolopyrimidine ITK inhibitors” (ACLARIS THERAPEUTICS, INC., priority 2018, dated 2025).

Key:
[1] = tested on: ITK phosphorylation of its substrate, PLCγ1, at Y783; experiment: ITK target modulation assay (PLCγ1 Y783 phosphorylation, anti-CD3 stimulated Jurkat T cells); assay type: cell-based; conditions: Homo sapiens, Jurkat, anti-CD3 Dynabeads stimulation, read-out: PLC-γ Inh. IC50
In short: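 Jurkat cells (400,000/well) were preincubated with compound for 1 h at 37 °C (0.1% DMSO final), then stimulated with anti-CD3 Dynabeads (bead:cell 2:1). Hypotonic lysates were dot-blotted and probed for phospho-PLCγ1 Y783 and total PLCγ1, with quantification by dual-channel infrared imaging.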

[2] = tested on: JAK1/3 phosphorylation of its substrate, STAT5, at Y694; experiment: JAK1/3 target modulation assay (IL-2 stimulated STAT5 Y694 phosphorylation in PBMC); assay type: cell-based; conditions: Homo sapiens, PBMC, Primary human peripheral blood mononuclear cells, IL-2 25 ng/mL; read-out: IL2-STAT5 Inh. IC50
In short: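 Human PBMCs preincubated with compound for 1 h at 37 °C, then stimulated with IL-2 (25 ng/mL final) for 5 min. Cells were lysed and phospho-STAT5a,b (Y694) measured by MSD electrochemiluminescence immunoassay, single-plex or multiplex with total STAT5a,b.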

[3] = molecular target: ITK (Homo sapiens (Human), UniProt Q08881); experiment: ITK inhibitor binding potency (LanthaScreen competitive binding assay); conditions: read-out: ITK Inh. IC50
ITK, sequence (Q08881 whole entry): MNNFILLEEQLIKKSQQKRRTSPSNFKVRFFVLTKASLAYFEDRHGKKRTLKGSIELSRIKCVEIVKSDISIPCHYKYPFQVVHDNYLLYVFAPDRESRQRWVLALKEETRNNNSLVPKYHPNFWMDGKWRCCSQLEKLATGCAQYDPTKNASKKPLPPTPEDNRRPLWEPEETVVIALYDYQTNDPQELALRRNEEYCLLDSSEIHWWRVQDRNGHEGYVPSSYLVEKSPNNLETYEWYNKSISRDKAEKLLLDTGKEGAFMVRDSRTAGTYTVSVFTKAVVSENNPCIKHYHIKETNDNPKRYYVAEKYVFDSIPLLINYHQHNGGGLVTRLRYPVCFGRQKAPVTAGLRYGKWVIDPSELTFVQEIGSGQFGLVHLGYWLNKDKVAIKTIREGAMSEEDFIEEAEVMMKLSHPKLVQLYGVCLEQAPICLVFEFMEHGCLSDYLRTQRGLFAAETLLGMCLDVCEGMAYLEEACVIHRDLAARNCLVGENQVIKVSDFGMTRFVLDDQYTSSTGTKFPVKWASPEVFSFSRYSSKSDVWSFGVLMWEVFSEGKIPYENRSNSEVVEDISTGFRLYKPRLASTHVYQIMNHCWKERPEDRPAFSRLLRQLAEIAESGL
In short: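 TR-FRET tracer displacement: 10 nM GST-ITK, 2 nM Eu-anti-GST, 50 nM tracer-236 in HEPES pH 7.5, MgCl2, 2% DMSO; 11 points, 20 µM–0.34 nM. Run with or without 2 h compound–ITK preincubation before tracer; IC50 by 4-parameter fit of emission ratio.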

[4] = molecular target: JAK3 (Homo sapiens (Human), UniProt P52333); experiment: JAK3 enzyme activity assay (Caliper mobility shift); assay type: biochemical; conditions: ATP at Km level; read-out: JAK3 Inh. IC50
JAK3, sequence (P52333 781-1124): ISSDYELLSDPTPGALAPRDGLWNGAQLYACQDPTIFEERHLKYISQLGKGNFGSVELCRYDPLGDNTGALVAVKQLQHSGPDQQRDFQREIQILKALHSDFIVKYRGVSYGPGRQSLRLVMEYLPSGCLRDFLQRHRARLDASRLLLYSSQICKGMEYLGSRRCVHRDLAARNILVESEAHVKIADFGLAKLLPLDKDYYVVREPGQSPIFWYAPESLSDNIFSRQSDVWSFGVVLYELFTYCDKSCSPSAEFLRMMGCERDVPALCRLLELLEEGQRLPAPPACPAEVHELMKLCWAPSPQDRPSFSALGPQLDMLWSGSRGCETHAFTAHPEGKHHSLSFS
In short: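 Caliper mobility-shift assay with 2.5 nM JAK3, […] and […] (Km level) in 20 mM HEPES pH 7.5, 10 mM MgCl2, 0.01% BSA, 0.0005% Tween-20, 2% DMSO. 11-point dose-response from […] 0.34 nM; IC50 by 4-parameter logistic fit of product/substrate signal.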

IC50 [1] [nM]	IC50 [2] [nM]	IC50 [3] [nM]	IC50 [4] [nM]	Structure (SMILES)
100 to 1000	100 to 1000	≤ 10	≤ 10	C=CC(=O)N1C[C@H](Nc2ncnc3[nH]cc(C(=O)C4CC4)c23)CC[C@@H]1C [Example 32, 1-((2S,5R)-5-((5-(cyclopropanecarbonyl)-7H-pyrrolo[2,3-d]pyrimidin-4-yl)amino)-2-methylpiperidin-1-yl)prop-2-en-1-one]
≤ 100	100 to 1000	≤ 10	≤ 10	C=CC(=O)N1C[C@H](Nc2ccnc3[nH]cc(C(=O)C4CC4)c23)CC[C@@H]1C [Example 34, 1-((2S,5R)-5-((3-(cyclopropanecarbonyl)-1H-pyrrolo[2,3-b]pyridin-4-yl)amino)-2-methylpiperidin-1-yl)prop-2-en-1-one]
100 to 1000	> 1000	10 to 100	10 to 100	C=CC(=O)N1CC(Nc2ncnc3[nH]cc(CC4CC4)c23)CCC1C(C)C (stereo not shown) [Example 41, 1-(5-((5-(cyclopropylmethyl)-7H-pyrrolo[2,3-d]pyrimidin-4-yl)amino)-2-isopropylpiperidin-1-yl)prop-2-en-1-one]
> 1000	≤ 100	10 to 100	≤ 10	C=CC(=O)N1CCC(Nc2cnc3[nH]cc(C(=O)C4CC4)c3n2)CC1 [Example 99, 1-(4-((7-(cyclopropanecarbonyl)-5H-pyrrolo[2,3-b]pyrazin-2-yl)amino)piperidin-1-yl)prop-2-en-1-one]
100 to 1000	≤ 100	10 to 100	≤ 10	C=CC(=O)N1CCC(Nc2cnc3[nH]cc(C(=O)C4CCC4)c3n2)CC1 [Example 100, 1-(4-((7-(cyclobutanecarbonyl)-5H-pyrrolo[2,3-b]pyrazin-2-yl)amino)piperidin-1-yl)prop-2-en-1-one]

More lines, now with the values behind:

Structure (SMILES)	IC50 [1] [nM]	IC50 [2] [nM]	IC50 [3] [nM]	IC50 [4] [nM]
C=CC(=O)N1C[C@H](Nc2ccnc3[nH]cc(CC4CC4)c23)CC[C@@H]1C [Example 35, 1-((2S,5R)-5-((3-(cyclopropylmethyl)-1H-pyrrolo[2,3-b]pyridin-4-yl)amino)-2-methylpiperidin-1-yl)prop-2-en-1-one]	100 to 1000	100 to 1000	≤ 10	≤ 10
C[C@H]1CC[C@@H](Nc2ncnc3[nH]cc(CC4CC4)c23)CN1C(=O)/C=C/CN(C)C [Example 37, (E)-1-((2S,5R)-5-((5-(cyclopropylmethyl)-7H-pyrrolo[2,3-d]pyrimidin-4-yl)amino)-2-methylpiperidin-1-yl)-4-(dimethylamino)but-2-en-1-one]	100 to 1000	> 1000	≤ 10	10 to 100
C=CC(=O)N1CC(Nc2ncnc3[nH]cc(CC4CC4)c23)CCC1CC (stereo not shown) [Example 38, 1-(5-((5-(cyclopropylmethyl)-7H-pyrrolo[2,3-d]pyrimidin-4-yl)amino)-2-ethylpiperidin-1-yl)prop-2-en-1-one]	100 to 1000	100 to 1000	≤ 10	≤ 10
C=CC(=O)N1C[C@H](Nc2ncnc3[nH]cc(C4(C)CC4(F)F)c23)CC[C@@H]1C (stereo partly drawn) [Example 50, 1-((2S,5R)-5-((5-(2,2-difluoro-1-methylcyclopropyl)-7H-pyrrolo[2,3-d]pyrimidin-4-yl)amino)-2-methylpiperidin-1-yl)prop-2-en-1-one]	≤ 100	100 to 1000	≤ 10	≤ 10
C=CC(=O)N1CCC(Nc2cnc3[nH]cc(C(=O)OCC)c3c2)CC1 [Example 96, ethyl 5-((1-acryloylpiperidin-4-yl)amino)-1H-pyrrolo[2,3-b]pyridine-3-carboxylate]	> 1000	100 to 1000	> 100	≤ 10
C=CC(=O)N1CCC(Nc2cnc3[nH]cc(C(=O)OCC)c3n2)CC1 [Example 97, ethyl 2-((1-acryloylpiperidin-4-yl)amino)-5H-pyrrolo[2,3-b]pyrazine-7-carboxylate]	> 1000	100 to 1000	> 100	≤ 10
C=CC(=O)N1CCC(Nc2cnc3[nH]cc(C(=O)C4CC4)c3c2)CC1 [Example 98, 1-(4-((3-(cyclopropanecarbonyl)-1H-pyrrolo[2,3-b]pyridin-5-yl)amino)piperidin-1-yl)prop-2-en-1-one]	> 1000	> 1000	> 100	10 to 100
C=CC(=O)N1CCC(Nc2cnc3[nH]cc(C(COC)C4CC4)c3c2)CC1 (stereo not shown) [Example 101, 1-(4-((3-(1-cyclopropyl-2-methoxyethyl)-1H-pyrrolo[2,3-b]pyridin-5-yl)amino)piperidin-1-yl)prop-2-en-1-one]	> 1000	> 1000	> 100	> 100
